The results in this text go back to EP0409382A1, “Glutamic acid derivatives” (THE WELLCOME FOUNDATION LIMITED, priority 1989, dated 1991).

For the test, the system named is MCF-7 breast adenocarcinoma. Kind of test: Cell culture cytotoxicity assay (MTT dye reduction), inhibition of cell growth. In kind it is cell-based, Human. To be noted: for IC50: MCF7, Anti-tumour Activity Human Breast Adenocarcinoma Cells, MCF-7, 72 hours incubation, medium with 10 nM calcium leucovorin as folate source, read-out: IC₅₀; for inhibiting the growth of MCF-7 cells: 72 hours, MTT dye reduction, result in words. How it is done: Cells and Medium: MCF-7 breast adenocarcinoma, obtained from the American Type Culture Collection (ATCC) are grown in RPMI 1640 medium supplemented with 10 nM calcium leucovorin instead of folic acid as the folate source; 10% dialyzed fetal calf serum, penicillin, streptomycin and sodium pyruvate (110 µg/ml).
Cytotoxicity Assay: Cells are seeded into 96 well plates using a Perkin Elmer Pro/pette. MCF-7 cells are seeded at 15,000 cells per well in 150 µl of medium and each concentration was assayed in triplicate. Cultures were incubated for 72 hours in a 37^o humidified incubator at5% CO₂. Inhibition of cell growth was measured using the MTT dye reduction assay.
MTT Dye Reduction Assay: Cell dilutions for a standard curve were prepared from a 72 hour log-phase culture. Serial dilutions were seeded in triplicate in 96 well plates and incubated at 37 for 1 hour. MTT (3-(4,5-dimethylthiazol-2-yl)-2,5-diphenyltetrazolium bromide) was dissolved in phosphate buffered saline at 5 mg/ml and sonicated for 30 seconds. Using the Perkin Elmer Pro/pipette, […] of medium was removed and 100 µl of MTT added to the wells of the standard curve and test plates. Suspension cultures were spun for 5 minutes at 1000 rpm before removing medium from the wells. Plates were incubated for 1 hour at 37^o on a platform shaker. Following this incubation, 100 µl of medium was removed from the wells and 100 µl of dimethylsulphoxide added to each well. The plates were sonicated for approximately 10 seconds to solubilize the precipitated formazan dye. The absorbance of each well was measured using a Titertek Multiskan MC microtiter plate reader at 570 nm with a reference wavelength of 750 nm.

Molecules are shown by their SMILES.

In the case of `Nc1nc(N)c(CCCSc2ccc(C(=O)N[C@@H](CCC(=O)O)C(=O)O)cc2)c(=O)[nH]1` [Example 1F, N-[4-[[3-(2,4-Diamino-1,6-dihydro-6-oxo-5-pyrimidinyl)propyl]thio]benzoyl]-L-glutamic acid], the IC50 is 23 nM and the “inhibiting the growth of MCF-7 cells” value was “active”.
As for `Nc1nc(N)c(CCCOc2ccc(C(=O)N[C@@H](CCC(=O)O)C(=O)O)cc2)c(=O)[nH]1` [Example 2E, N-[4-[3-(2,4-Diamino-1,6-dihydro-6-oxo-5-pyrimidinyl)propoxy]benzoyl]-L-glutamic acid], the IC50 worked out at 85 nM and the “inhibiting the growth of MCF-7 cells” value was “active”.
